Results as given in US9958453B2, “Biological sensing method for separating biomolecule” (priority 2015, dated 2018).

How the values were obtained:
UlaG protein = assay: Phage display peptide screening against UlaG protein on ELISA plate; assay type: binding; conditions: UlaG protein expressed by Escherichia coli, purified, modified onto ELISA plate
From the text: The screening method of an amino acid according to an embodiment of the present invention included the following steps: • 1. UlaG protein was largely expressed by Escherichia coli • 2. The UlaG protein in step 1 was purified, and then modified onto an enzyme-linked immunosorbent assay (ELISA) plate. • 3. Phage display peptide system was used to perform the screening. The phage display peptide system used bacteriophages with various peptide segments to contact the UlaG protein. After a process of repeated binding, washing, eluting, amplifying, and re-binding, the bacteriophage that can bind to the UlaG protein was selected. • 4. The selected bacteriophage in step 3 was amplified and sequenced by polymerase chain reaction (PCR). The amino acid sequence that can bind to the UlaG protein was then obtained.
Therefore, an amino acid sequence including the sequence shown in SEQ ID NO: 1 or SEQ ID NO: 2 can be used in the recognition of the UlaG protein.

Streptococcus mutans = assay: Field-effect transistor biological sensing device, comparative example Streptococcus mutans; assay type: binding; conditions: FIG. 4
Method: Furthermore, the present experimental example applied Streptococcus mutans as a comparative example using the abovementioned biological sensing device 300 and detecting method. The field-effect transistor modified with the amino acid sequence including the sequence shown in SEC) ID NO: 1 was contact to broths of Streptococcus mutans with different concentrations, and the potential difference of the surface of the field-effect transistor modified was measured.
FIG. 4 is a potential difference-bacterial concentration diagram of a comparative example for a detecting experiment, which the bacterial concentration is represented by the number of colonies per mL of the broth. […] Therefore, Streptococcus […] is not recognized by and bound to the amino acid sequence of the biological sensing device of the present invention.

Streptococcus pneumoniae = assay: Field-effect transistor biological sensing device, detecting of Streptococcus pneumoniae; assay type: binding, Streptococcus pneumoniae ATCC 49136; conditions: amino acid sequence modified onto field-effect transistor; broths of Streptococcus pneumoniae with different concentrations; FIG. 3
From the text: UlaG protein is expressed in the cell wall of Streptococcus pneumoniae. The following experimental example used the biological sensing device of the present invention to detect whether the sample included Streptococcus pneumoniae, and the detecting method included the following steps: • 1. The amino acid sequence including the sequence shown in SEQ ID NO: 1 was largely expressed by Escherichia coli. • 2. The amino acid sequence in step 1 was purified, and then modified onto a surface of a field-effect transistor. • 3. The field-effect transistor modified with the amino acid sequence in step 2 was contact to broths of Streptococcus pneumoniae with different concentrations, and the potential difference of the surface of the field-effect transistor modified was measured. The strain of Streptococcus pneumoniae used in this experimental example was ATCC 49136.
FIG. 2 is a schematic view of a biological sensing device 300 according to an embodiment of the present invention detecting a biomolecule 400. […]
FIG. 3 is a potential difference-bacterial concentration diagram of an embodiment of the present invention for the detecting experiment, which the bacterial concentration is represented by the number of colonies per milliliter (mL) of the broth. […] The Streptococcus pneumoniae can be detected by the change in the surface potential.

Row | Substance | binding affinity to the UlaG protein (UlaG protein) | potential difference of the surface of the field-effect transistor vs bacterial concentration (Streptococcus mutans; amino acid sequence modified onto field-effect transistor, broths of Streptococcus mutans with different concentrations) | reaction of the amino acid sequence with Streptococcus mutans (Streptococcus mutans; field-effect transistor device) | potential difference of the surface of the field-effect transistor vs bacterial concentration (Streptococcus pneumoniae)
1 | SEQ ID NO: 2: short sequence of 7 amino acids, selected by phage display, that binds the UlaG protein (ERIMPVL; amino acid sequence bound to UlaG protein) | high binding affinities |  |  | 
2 | SEQ ID NO: 1: short sequence of 7 amino acids, selected by phage display, that binds the UlaG protein; used on the field-effect transistor (ENIMPVL; amino acid sequence bound to UlaG protein) | high binding affinities | did not change accordingly with the increase of the bacterial concentration | does not react | increased with the increase of the bacterial concentration
